Reference: patent US9084791B2, “Method of inhibiting myopia and application of an adenylyl cyclase inhibitor as a drug for inhibiting myopia” (SCHOOL OF OPHTHALMOLOGY AND OPTOMETRY, WENZHOU MEDICAL …, priority 2010, dated 2015)

System: form-deprivation myopia of guinea pigs
Assay: Monocular form-deprivation myopia in guinea pigs, sub-conjunctival injection
Format: in vivo, guinea pig
Conditions: form-deprivation eyes, 1 μM and 100 μM sub-conjunctival injection daily, after 4 weeks, vs vehicle control group
Protocol: Experimental animals were 3 weeks old, UK variety, three-color and short-haired guinea pigs. Monocular form-deprivation (FD) was performed by using a facemask, and the form-deprivation eyes were treated with adenylyl cyclase inhibitor (ACI) SQ22536 at different concentrations (for example, 1 μM and 100 μM) by sub-conjunctival injection, so as to differently decrease intraocular cAMP levels. Animals were divided into 4 groups randomly: form-deprivation control group (FD+non-injection), form-deprivation+vehicle control group (FD+vehicle) (vehicle here refers to 0.9% saline), form-deprivation+drug groups (FD+1 μM SQ22536 group and FD+100 μM SQ22536 group). Drugs were sub-conjunctivally injected at 9:00 am every day for 4 weeks. The contralateral eyes were not treated. Refraction were measured with an infrared eccentric refractometer (EIR). Corneal curvature radii were measured with a keratometer. Eye axis parameters, such as vitreous chamber depths and axial lengths, were measured with an A-scan ultrasonograph (11 MHz), respectively, before experiment, 2 weeks after treatment, and 4 weeks after treatment.

Nc1ncnc2c1ncn2C1CCCO1 (stereo not drawn) [SQ22536, 9-(Tetrahydro-2-furanyl)-9H-purin-6-amine]
myopic refractive error (refraction difference between experimental eye and contralateral eye) (time- and concentration-dependent effect (FIG. 1)): less than that of the vehicle control group | vitreous chamber elongation (vitreous chamber depth difference between experimental eye and contralateral eye) (time- and concentration-dependent effect (FIG. 2)): significantly less than that of the vehicle control group | axial elongation (axial length difference between experimental eye and contralateral eye) (time- and concentration-dependent effect (FIG. 3)): significantly less than that of the vehicle control group
